Measured values published in PMC12129089, “Peptide stereocomplex cross-links for polymer hydrogels” (Chemical Science, 2025).
Square brackets hold non-standard residues; d marks the D form. Ends that are not written are not given here. Peptide text beside a SMILES is read from it.

Columns and labels:
Proteinase K = target: T1, Proteinase K (Parengyodontium album, UniProt P06873); conditions: unconjugated KYFIL peptides; cited from earlier work
T1 construct: purchased Sigma-Aldrich
Procedure: Given the potential of peptide stereocomplexes to prolong hydrogel lifetime due to enhanced proteolytic stability, we were interested to learn whether the KYFIL stereocomplex cross-links boost the proteolytic stability of polymeric hydrogels. In our prior study with unconjugated KYFIL stereocomplexes, we incubated l-, 1 : 1 L : D-, and D-KYFIL in Proteinase K, an enzyme that is predicted to cleave L-KYFIL between the Y–F, F–I, and I–L residues.[57] We found more than 90% intact peptide in the 1 : 1 L : D-peptide mixtures after incubation with Proteinase K for 72 h, while only ∼35% L-KYFIL rema ...

[1] = Solubility / visual appearance in water, PBS or urea-PBS; assay type: physicochemical
Text: To attach the peptides to PEG, we selected a thiol-maleimide reaction[43,44] due to its efficiency under mild conditions (Fig. 1a). Therefore, we prepared cysteine-terminated L- and […], or […] and […]8 ^†), for conjugation to maleimide-functionalized 4-arm PEG. […] We note that […] peptides are only partially soluble and form a white dispersion in the 7 M urea 1× PBS solution (Fig. S10 ^†). […] In 1× PBS, while 1.5% (w/v) unconjugated KYFIL forms β-sheets, the conjugates are soluble and we see no evidence of β-sheet formation by infrared (IR) spectroscopy even at 15% ([…] ^†), corresponding to a peptide equivalent concentration of ∼2% (w/v), which exceeds the peptide concentrations in the 1.5% (w/v) formulations of peptide alone. As noted in our previous report on unconjugated KYFIL,[20] we used IR here for secondary structure determination rather than CD because the high peptide concentrations and the presence of salt that promote β-sheet formation also complicate CD spectra acquisition by saturating the detector. […] Moreover, the absorbances are more prominent at higher concentrations (Fig. 2b), signifying the relationship between secondary structure and hydrogel formation.

T1 sequence (P06873 106-384): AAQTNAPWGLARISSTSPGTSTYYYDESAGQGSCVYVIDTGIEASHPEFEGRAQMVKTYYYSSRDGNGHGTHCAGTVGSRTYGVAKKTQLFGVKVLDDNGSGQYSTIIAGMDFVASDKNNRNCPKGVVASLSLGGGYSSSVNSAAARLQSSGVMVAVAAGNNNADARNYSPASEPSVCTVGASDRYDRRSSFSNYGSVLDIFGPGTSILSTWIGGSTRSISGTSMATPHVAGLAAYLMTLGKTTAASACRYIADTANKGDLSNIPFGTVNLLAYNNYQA

L-KYFIL [unconjugated L-peptide KYFIL of the authors' prior study]
intact peptide after incubation with Proteinase K for 72 h (Proteinase K): ~35%

KYFILC-NH2 [L-KYFILC]
solubility in water (in words) [1]: soluble

CC[C@@H](C)[C@@H](NC(=O)[C@@H](Cc1ccccc1)NC(=O)[C@@H](Cc1ccc(O)cc1)NC(=O)[C@H](N)CCCCN)C(=O)N[C@H](CC(C)C)C(=O)N[C@H](CS)C(N)=O [D-KYFILC] (H-[dK][dY][dF][dI][dL][dC]-NH2)
solubility in water (in words) [1]: soluble
